Type in all cases: cell-based, rat
For assay [1], the system named is cerebellar microexplants. Kind of assay: cerebellar microexplant proliferation assay under injury (BrdU-positive nuclei). The protocol:
Using the toxins described above, cerebellar explants were exposed for 24 hours, at the beginning of culturing to dilutions of NRP and 0.1 μM BrdU. Subsequently, 80% of the medium was changed without addition of new toxins and NRPs. The cerebellar cultures were fixed as described above after 3 days in vitro. The detection of the incorporated BrdU level was performed as described previously. Under these conditions, over 99% of the cells in the cerebellar population were neurons. Therefore any increase in cell number after NRP administration was most likely due to neuronal cell proliferation.
For statistical analysis of proliferation four fields (each field having an area of 0.65 mm^2) of each fixed cerebellar culture displaying highest density of BrdU-positive nuclei were chosen, and BrdU-positive nuclei were counted. Statistical significance was measured by Student's t-test.
Laminated cerebellar cortex was extracted from P3/4, P7/8 rat pups and triturated through gauze having a 125 μm pore size to obtain uniformly sized microexplants. After centrifugation for 3 minutes at 61 g and the pellet was resuspended in StartV medium (Biochrom) and the suspension seeded on poly-D-lysine coated coverslips in 6-well plates and incubated for 3 hrs to allow adherence, before 1 ml StartV per well was added. As described previously, glutamate/3-NP and NRP were also added. The explants are cultivated at 34° C. at 5% CO2 and 100% humidity for 48-72 hrs. BrdU was administered at start of cultivation for proliferation rate measurements and cells are counted per microscopic field after 48-72 hrs.

The subject of assay [2] is cerebellar microexplants. The assay can be described thus: cerebellar microexplant neuronal migration assay. The source says: Another assay of this invention includes embodiments comprising cerebellar microexplants. Laminated cerebellar cortices of the two hemispheres were explanted from a P-4 Long Evans rat, cut into small pieces in GBSS with 0.65% D(+)glucose solution, and triturated by a 0.4 mm gauge needle and subsequently pressed through a 125 μm pore size sieve. The obtained microexplants were centrifuged (200×g) 2 times for a medium exchange into serum-free BSA-supplemented START V-medium (Biochrom). Finally, the microexplants were reconstituted in 500 μl STARTV-medium. For culturing, 38 μl of the cell suspension and 2 μl of migration-inducing factor (NRP-1) in 0.01 M sodium phosphate (pH 7.3) or phosphate alone (control) was incubated for 3 hours on a poly-D-lysine-coated cover slip in a 35 mm Petri dish under an atmosphere comprising 5% CO2 in air and 100% humidity at 34° C. Subsequently, 1 ml of STARTV-medium was added, and the cultures were evaluated after 2-3 days of culture (for example, see FIG. 2).
For immunohistochemistry and neuronal migration experiments, cerebellar microexplants were fixed after 2-3 days in culture after the following regime: microexplants were fixed by 2-minute, serial treatment with 0.4%; 1.2%; 3% paraformaldehyde/0.25% glutaraldehyde, respectively, followed by a 5 min incubation in 4% paraformaldehyde/0.25% glutaraldehyde in 0.1 M sodium phosphate (pH 7.4). MAP-2 was detected using the biotin-streptavidin/Cy3 detection system as described under the immunohistochemistry section of the thalamocortical OTCs.
Microexplants having a diameter between 100-120 μm were chosen for statistical analysis. For quantitative analysis of neuronal migration, an optical device having 10 consecutive rings of 100 μm diameter was applied over the microexplants. All neurons that had migrated after 48 h of culture were counted. Neurons located between circles 1 to 10 (0.1-1 mm) around the margin of the respective microexplant (see FIG. 2) were counted, and each circle was expressed as a percentage of total migrating cells. The unpaired Student's t-test was used for significance analysis. Results were given as mean values±standard deviation.

In assay [3] the test system is thalamic parvalbumin-ir neurons. The assay can be described thus: BrdU/parvalbumin proliferation within thalamocortical OTCs. To be noted: 3 nM. The protocol: Thalamocortical OTCs from rats, as described above in Examples 3 and 4 were incubated at the start of cultivation with 2 μM of BrdU that was removed after 24 hours of cultivation time. OTCs were fixed in 4% paraformaldehyde in 0.1 M phosphate buffer (pH 7.4). Blocking was done in 0.4% Triton and 10% normal goat serum in PBS for 30 minutes. Subsequently the cultures were treated for 30 minutes in 2N HCl at 37° C. and neutralized by 0.1 M Na2B4O7 for 2×5 minutes. Internal peroxidase activity was prevented by 5 minute treatment of the OTCs in 1% H2O2 (only in case of the PAP reaction). Primary antibody (mouse anti-BrdU 1/50-Sigma) reaction was done overnight in 0.4% Triton, 2% BSA in PBS.
Biotinylated goat anti-mouse IgG was applied (1/200 for 2 h) with the subsequent application of the avidin biotin horseradish peroxidase system and the final DAB-detection (0.05%); 0.009% H2O2 enhanced by 0.025% cobalt chloride and 0.02% nickel ammonium sulphate. BrdU-positive nuclei become black stained. […] For double fluorescence detection, mouse anti-BrdU IgG and rabbit anti-parvalbumin IgG (or rabbit anti-calretinin 1/1000) were given simultaneously after the neutralisation step and anti-parvalbumin antibody binding was detected by the biotin-streptavidin/Cy2 detection system while the occurrence of BrdU was monitored by an anti-mouse/Cy3 IgG. […]

Values joined by “and” are separate entries in the source; they are usually repeats but may differ in a detail not shown here. Identical values can stand only once. Ends that are not written are not given here.

On to “SEPEARRAPGRKGGVVCASLAADW-NH2 [NRP-7 segment SW, 24-mer form of mouse NRP-7]”, for which the “up regulation of the proliferation rate observed for injured cerebellar microexplants” value with cerebellar microexplants [1] (0.1 pM) was 252.6%; in the assay with cerebellar microexplants [1] (100 pM), 123.7%. Further, the “enhancement of the proliferation rate” value in the assay on cerebellar microexplants [1] (neurons injured using 3-NP/glutamate) was “more than 200%”.
Consider “NRP-1: rat 16 amino acid neural regeneration peptide purified from hippocampal OTC supernatant, Tyr Asp Pro Glu ... Cys His-NH2 (YDPEAASAPGSGNPCH-NH2)”, for which the “concentration sufficient to induce significantly enhanced migration of neurons” value in the assay with cerebellar microexplants [2] was found to be 3 nM. In addition, in the assay with cerebellar microexplants [2] (3 nM, 2 days of culture), the “migrating cerebellar cells distributed between 400-500 μm from microexplant margin” value was 7.3±2.8% and the “migrating cerebellar cells distributed between 500-600 μm from microexplant margin” value stood at 13.2±13.9%. For the same substance, in the assay on cerebellar microexplants [2] (two days after administration), the “distance from the cerebellar margin where most of the cells were distributed” value is recorded as 200-300 μm and the “distance from the margin of a significant population of cells” value is 500-600 μm. Moreover, the “parvalbumin-ir thalamic neurons co-localised with BrdU” value in assay [3] (5 days in vitro) is 6.8±1.3% and 6.8%. In assay [3] (vs defined medium alone), the “enhanced proliferation of parvalbumin expressing neurons compared to controls” value is listed as “up to 150%”.

For the origin of these results see patent US7563862B2, “Neural regeneration peptides and methods for their use in treatment of brain damage” (Neuren Pharmaceuticals Limited, priority 2001, dated 2009).
